This assay deals with T1, F508delCFTR (Homo sapiens, UniProt P13569, DEL508-508).
T1 construct: expressed in transfected cells; host or cells: CFBE41o- (CFBE41o-F508delCFTR-HRP), doxycycline-inducible
As to the kind of experiment: Cell Surface Expression-Horse Radish Peroxidase (CSE-HRP) assay. The class given is cell-based. Conditions: CFBE41o-F508delCFTR-HRP cells; for EC50: cell surface expression, luminescence readout, 18-24 hours at 33° C., highest concentration tested 20 μM, 8-point curve; for Maximum % activity: maximum at any tested concentration, normalized to on-plate positive control (3 μM) and DMSO. An excerpt:
Cell Surface Expression-Horse Radish Peroxidase (CSE-HRP) Assay:
A cellular assay for measuring the F508delCFTR cell surface expression after correction with test compounds was developed in human lung derived epithelial cell line (CFBE41o-) (Veit G et al, (2012) Mol Biol Cell. 23(21): 4188-4202). This was achieved by expressing the F508delCFTR mutation along with a horseradish peroxidase (HRP) in the fourth exofacial loop and then measuring the HRP activity using luminescence readout from these cells, CFBE41o-F508delCFTR-HRP, that were incubated overnight with the test corrector compounds. Briefly, for this primary assay, the CFBE41o-F508delCFTR-HRP cells were plated in 384-well plates (Greiner Bio-one; Cat 781080) at 4,000 cells/well along with 0.5 μg/mL doxycycline to induce the F508delCFTR-HRP expression and further incubated at 37° C., 5% CO2 for 72 hours. The test compounds were then added at the required concentrations and further incubated for 18-24 hours at 33° C. The highest concentration tested was 20 μM with an 8-point concentration response curve using a 3-fold dilution. Three replicate plates were run to determine one EC50. All plates contained negative controls (dimethyl sulfoxide, DMSO) and positive controls (3 μM of 3-[(2R,4R)-4-({[1-(2,2-difluoro-1,3-benzodioxol-5-yl)cyclopropyl]carbonyl}amino)-7-methoxy-3,4-dihydro-2H-chromen-2-yl]benzoic acid) as well as on-plate concentration response of the positive control. Post incubation, the plates were washed 5× times with Dulbecco's phosphate buffered saline (DPBS), followed by the addition of the HRP substrate, luminol (50 μL), and measuring the HRP activity using luminescence readout on EnVision® Multilabel Plate Reader (Perkin Elmer; product number 2104-0010). The raw counts from the experiment are analyzed using Accelrys® Assay Explorer v3.3.
Z′ greater than 0.5 was used as passing quality control criteria for the plates.
The Z′ is defined as: 1−[3*SDPositive Control+3*SDNegative Control/Absolute(MeanPositive Control−MeanNegative Control)],
wherein “SD” is standard deviation.
The % activity measured at each of the 8 test concentrations of the test compound was normalized to the on-plate positive control using the following formula: % activity=[(test compound response−DMSO response)/(positive control response−DMSO response)]*100
The maximum % activity achieved for the test compound at any tested concentration is presented in Table 1 along with the EC50 calculated using the following general sigmoidal curve with variable Hill slope equation (described as Model 42 in the Accelrys® Assay Explorer v3.3 software): y=(a−d)/(1+(x/c)^b)+d General sigmoidal curve with concentration, response, top, bottom, EC50 and Hill slope.
This model describes a sigmoidal curve with an adjustable baseline, a. The equation can be used to fit curves where response is either increasing or decreasing with respect to the independent variable, “x”.
“x” is a concentration of drug under test.
“a” is the maximum response, and “d” is the minimum response
“c” is the inflection point (EC50) for the curve. That is, “y” is halfway between the lower and upper asymptotes when x=c.
“b” is the slope-factor or Hill coefficient. The sign of b is positive when the response increases with increasing dose and is negative when the response decreases with increasing dose (inhibition).

The structures appear in SMILES notation.

In general, EC50 refers to the concentration at which the effect is half-maximal. Read a low EC50 as a more potent agent.

T1 sequence (P13569 with tags, fused parts or gaps DEL508-508): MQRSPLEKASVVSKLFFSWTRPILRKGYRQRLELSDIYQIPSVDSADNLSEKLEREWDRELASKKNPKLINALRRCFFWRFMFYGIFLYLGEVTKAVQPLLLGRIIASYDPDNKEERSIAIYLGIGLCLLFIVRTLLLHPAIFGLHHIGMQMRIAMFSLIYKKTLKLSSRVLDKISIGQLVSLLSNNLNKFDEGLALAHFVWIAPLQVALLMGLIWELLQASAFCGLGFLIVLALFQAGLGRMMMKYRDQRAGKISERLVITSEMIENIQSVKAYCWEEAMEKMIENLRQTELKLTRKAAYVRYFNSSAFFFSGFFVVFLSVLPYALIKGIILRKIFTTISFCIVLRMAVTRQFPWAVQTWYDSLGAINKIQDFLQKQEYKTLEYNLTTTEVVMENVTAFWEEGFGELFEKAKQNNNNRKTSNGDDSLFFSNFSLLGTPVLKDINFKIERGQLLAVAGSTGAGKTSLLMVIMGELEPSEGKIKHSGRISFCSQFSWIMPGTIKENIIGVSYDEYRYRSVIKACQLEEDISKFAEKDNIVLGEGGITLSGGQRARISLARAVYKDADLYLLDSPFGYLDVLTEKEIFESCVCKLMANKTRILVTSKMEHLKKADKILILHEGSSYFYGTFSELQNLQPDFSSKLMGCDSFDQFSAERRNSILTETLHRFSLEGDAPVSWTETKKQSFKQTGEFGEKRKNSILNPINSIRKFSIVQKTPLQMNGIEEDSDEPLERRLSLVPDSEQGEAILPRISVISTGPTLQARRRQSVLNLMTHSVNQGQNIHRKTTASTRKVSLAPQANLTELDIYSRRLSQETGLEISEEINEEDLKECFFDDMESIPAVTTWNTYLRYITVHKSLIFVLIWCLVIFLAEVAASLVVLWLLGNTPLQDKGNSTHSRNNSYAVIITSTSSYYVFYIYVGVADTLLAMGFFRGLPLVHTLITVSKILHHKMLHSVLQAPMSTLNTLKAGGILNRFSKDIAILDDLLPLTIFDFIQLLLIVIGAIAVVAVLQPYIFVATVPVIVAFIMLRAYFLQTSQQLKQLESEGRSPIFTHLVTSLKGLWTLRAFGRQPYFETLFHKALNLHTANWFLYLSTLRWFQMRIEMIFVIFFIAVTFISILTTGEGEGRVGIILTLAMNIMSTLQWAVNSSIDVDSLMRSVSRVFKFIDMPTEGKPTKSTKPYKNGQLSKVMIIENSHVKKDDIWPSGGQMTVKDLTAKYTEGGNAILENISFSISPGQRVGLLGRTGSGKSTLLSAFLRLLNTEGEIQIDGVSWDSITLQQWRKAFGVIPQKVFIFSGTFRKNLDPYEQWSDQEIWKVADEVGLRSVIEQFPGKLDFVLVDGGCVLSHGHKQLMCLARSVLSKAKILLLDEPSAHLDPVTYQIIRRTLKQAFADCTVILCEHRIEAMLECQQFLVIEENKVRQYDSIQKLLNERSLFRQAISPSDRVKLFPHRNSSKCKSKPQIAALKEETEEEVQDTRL

As for `COC(=O)c1ccc([C@H]2C[C@@H](NC(=O)C3(c4ccc5c(c4)OC(F)(F)O5)CC3)CC(C)(C)O2)cc1` (racemic) [Example 34, methyl rac-4-[(2R,4R)-4-({[1-(2,2-difluoro-1,3-benzodioxol-5-yl)cyclopropyl]carbonyl}amino)-6,6-dimethyltetrahydro-2H-pyran-2-yl]benzoate], it took 1610 nM to reach a half-maximal effect (EC50) and the Maximum % activity is on record as 105%.

As for `COC(=O)c1ccc([C@H]2C[C@@H](NC(=O)C3(c4ccc5c(c4)OC(F)(F)O5)CC3)C[C@@H](c3ccc(OC)cc3)O2)cc1` (racemic) [Example 55, methyl rac-4-[(2R,4R,6S)-4-({[1-(2,2-difluoro-1,3-benzodioxol-5-yl)cyclopropyl]carbonyl}amino)-6-(4-methoxyphenyl)tetrahydro-2H-pyran-2-yl]benzoate], the midpoint of the response, the EC50, lay at 860 nM and the Maximum % activity turned out to be 104%.

On to `COC(=O)c1ccc([C@H]2CC(NC(=O)C3(c4ccc5c(c4)OC(F)(F)O5)CC3)C[C@@H](C3CC3)O2)cc1` (mixture of isomers) [Example 38, methyl rac-4-[(2R,6S)-6-cyclopropyl-4-({[1-(2,2-difluoro-1,3-benzodioxol-5-yl)cyclopropyl]carbonyl}amino)tetrahydro-2H-pyran-2-yl]benzoate], for which the EC50 came out at 2480 nM and the Maximum % activity is 84%.

Regarding `O=C(O)c1cccc([C@H]2C[C@@H](NC(=O)C3(c4ccc5c(c4)OC(F)(F)O5)CC3)CCO2)c1` (racemic) [Example 2, rac-3-[(2R,4S)-4-({[1-(2,2-difluoro-1,3-benzodioxol-5-yl)cyclopropyl]carbonyl}amino)tetrahydro-2H-pyran-2-yl]benzoic acid], the half-maximal effective concentration (EC50) came to 850 nM and the Maximum % activity is listed as 71%.

For the compound `Cc1cc(C(=O)O)cc([C@H]2C[C@@H](NC(=O)C3(c4ccc5c(c4)OC(F)(F)O5)CC3)C[C@@H](c3ccccc3)O2)c1` (single isomer, unassigned) [Example 75], the response was half-maximal at 220 nM (EC50) and the Maximum % activity is reported as 105%.

`O=C(O)c1cccc([C@@H]2C[C@H](NC(=O)C3(c4ccc5c(c4)OC(F)(F)O5)CC3)CCO2)c1` [Example 18, 3-[(2S,4R)-4-({[1-(2,2-difluoro-1,3-benzodioxol-5-yl)cyclopropyl]carbonyl}amino)tetrahydro-2H-pyran-2-yl]benzoic acid]: the half-maximal effective concentration (EC50) was at least 20000 nM and the Maximum % activity was found to be 3%.

Consider `COC(=O)c1ccc([C@H]2C[C@H](NC(=O)C3(c4ccc5c(c4)OC(F)(F)O5)CC3)CC(C)(C)O2)cc1` (racemic) [Example 32, methyl rac-4-[(2R,4S)-4-({[1-(2,2-difluoro-1,3-benzodioxol-5-yl)cyclopropyl]carbonyl}amino)-6,6-dimethyltetrahydro-2H-pyran-2-yl]benzoate], for which the concentration for a half-maximal effect (EC50) is 4120 nM and the Maximum % activity was 69%.

Consider `COC(=O)c1ccc([C@H]2C[C@H](NC(=O)C3(c4ccc5c(c4)OC(F)(F)O5)CC3)C[C@@H](C)O2)cc1` (racemic) [Example 46, methyl rac-4-[(2R,4R,6R)-4-({[1-(2,2-difluoro-1,3-benzodioxol-5-yl)cyclopropyl]carbonyl}amino)-6-methyltetrahydro-2H-pyran-2-yl]benzoate], for which the EC50 came out at 4560 nM and the Maximum % activity is on record as 67%.

For `CC1(C)C[C@H](NC(=O)C2(c3ccc4c(c3)OC(F)(F)O4)CC2)C[C@H](c2ccc(C(=O)O)cc2)O1` (racemic) [Example 35, rac-4-[(2R,4R)-4-({[1-(2,2-difluoro-1,3-benzodioxol-5-yl)cyclopropyl]carbonyl}amino)-6,6-dimethyltetrahydro-2H-pyran-2-yl]benzoic acid], a half-maximal response (EC50) required 2870 nM and the Maximum % activity is given as 89%.

Take `COC(=O)c1cccc([C@H]2C[C@@H](NC(=O)C3(c4ccc5c(c4)OC(F)(F)O5)CC3)CCO2)c1` (racemic) [Example 3, methyl rac-3-[(2R,4S)-4-({[1-(2,2-difluoro-1,3-benzodioxol-5-yl)cyclopropyl]carbonyl}amino)tetrahydro-2H-pyran-2-yl]benzoate]: a half-maximal effect (EC50) was put at 1410 nM and the Maximum % activity is given as 64%.

On to `COC(=O)c1cccc([C@H]2C[C@@H](NC(=O)C3(c4ccc5c(c4)OC(F)(F)O5)CC3)C[C@@H](c3ccccc3)O2)c1` (racemic) [Example 23, methyl rac-3-[(2R,4S,6S)-4-({[1-(2,2-difluoro-1,3-benzodioxol-5-yl)cyclopropyl]carbonyl}amino)-6-phenyltetrahydro-2H-pyran-2-yl]benzoate], for which a half-maximal effect (EC50) was put at 850 nM and the Maximum % activity turned out to be 104%.

As to `COc1cccc([C@@H]2C[C@H](NC(=O)C3(c4ccc5c(c4)OC(F)(F)O5)CC3)C[C@H](c3cccc(C(=O)O)c3)O2)c1` (single isomer, unassigned) [Example 74], it took 240 nM to reach a half-maximal effect (EC50) and the Maximum % activity was determined as 89%.

In the case of `COC(=O)c1cccc([C@H]2C[C@H](NC(=O)C3(c4ccc5c(c4)OC(F)(F)O5)CC3)CCO2)c1` (racemic) [Example 4, methyl rac-3-[(2R,4R)-4-({[1-(2,2-difluoro-1,3-benzodioxol-5-yl)cyclopropyl]carbonyl}amino)tetrahydro-2H-pyran-2-yl]benzoate], the EC50 was determined as 3110 nM and the Maximum % activity is listed as 23%.

With `O=C(O)c1ccc([C@H]2C[C@H](NC(=O)C3(c4ccc5c(c4)OC(F)(F)O5)CC3)C[C@@H](c3ccccc3)O2)cc1` (racemic) [Example 49, rac-4-[(2R,4R,6S)-4-({[1-(2,2-difluoro-1,3-benzodioxol-5-yl)cyclopropyl]carbonyl}amino)-6-phenyltetrahydro-2H-pyran-2-yl]benzoic acid], the EC50 was found to be 3080 nM and the Maximum % activity is reported as 77%.

Turning to `COc1ccc([C@H]2C[C@@H](NC(=O)C3(c4ccc5c(c4)OC(F)(F)O5)CC3)C[C@@H](c3ccc(C(=O)O)cc3)O2)cc1` (single isomer, unassigned) [Example 67], the EC50 came to 2410 nM and the Maximum % activity stood at 54%.

Consider `O=C(O)c1ccc([C@H]2C[C@H](NC(=O)C3(c4ccc5c(c4)OC(F)(F)O5)CC3)C[C@@H](c3ccccc3)O2)c(F)c1` (racemic) [Example 61, rac-4-[(2R,4R,6S)-4-({[1-(2,2-difluoro-1,3-benzodioxol-5-yl)cyclopropyl]carbonyl}amino)-6-phenyltetrahydro-2H-pyran-2-yl]-3-fluorobenzoic acid], for which the concentration giving a half-maximal response (EC50) is 2540 nM and the Maximum % activity amounted to 82%.

As to `COC(=O)c1ccc([C@H]2C[C@@H](NC(=O)C3(c4ccc5c(c4)OC(F)(F)O5)CC3)CCO2)cc1` (racemic) [Example 13, methyl rac-4-[(2R,4S)-4-({[1-(2,2-difluoro-1,3-benzodioxol-5-yl)cyclopropyl]carbonyl}amino)tetrahydro-2H-pyran-2-yl]benzoate], the concentration giving a half-maximal response (EC50) was found to be 1160 nM and the Maximum % activity was determined as 110%.

For `COC(=O)c1ccc([C@H]2C[C@@H](NC(=O)C3(c4ccc5c(c4)OC(F)(F)O5)CC3)CCO2)c(C)c1` (racemic) [Example 36, methyl rac-4-[(2R,4S)-4-({[1-(2,2-difluoro-1,3-benzodioxol-5-yl)cyclopropyl]carbonyl}amino)tetrahydro-2H-pyran-2-yl]-3-methylbenzoate], the midpoint of the response, the EC50, lay at 570 nM and the Maximum % activity worked out at 100%.

Regarding `COC(=O)c1ccc(C)c([C@H]2C[C@@H](NC(=O)C3(c4ccc5c(c4)OC(F)(F)O5)CC3)C[C@@H](c3ccccc3)O2)c1` (racemic) [Example 71, methyl rac-3-[(2R,4S,6S)-4-({[1-(2,2-difluoro-1,3-benzodioxol-5-yl)cyclopropyl]carbonyl}amino)-6-phenyltetrahydro-2H-pyran-2-yl]-4-methylbenzoate], the concentration giving a half-maximal response (EC50) amounted to 1310 nM and the Maximum % activity was determined as 92%.

The values above are taken from patent US9567322B2, “Substituted tetrahydropyrans and method of use” (AbbVie S.á.r.l., priority 2014, dated 2017).
